# Test results published in the NIST ThermoML archive (doi:10.1016/j.fluid.2012.01.007).
# Numbers after ± are expanded uncertainties.
# Assay: excess molar enthalpy (molar enthalpy of mixing); xn = mol fraction of the nth substance listed
# Settings: 101 kPa, Liquid, Flow calorimetry
smiles,measurement,setting,value
C1CCCCC1 [cyclohexane] + CCCCCO,excess molar enthalpy,"298.15 K, x2 = 0",0 ± 0.000239 kcal/mol
same,excess molar enthalpy,"313.15 K, x2 = 0",0 ± 0.000239 kcal/mol
CCCCCO [pentan-1-ol] + Cc1ccccc1,excess molar enthalpy,"298.15 K, x1 = 0.0511",0.129 ± 0.00287 kcal/mol
same,excess molar enthalpy,"298.15 K, x1 = 0.1004",0.182 ± 0.00382 kcal/mol
same,excess molar enthalpy,"298.15 K, x1 = 0.1497",0.211 ± 0.00454 kcal/mol
same,excess molar enthalpy,"298.15 K, x1 = 0.2012",0.232 ± 0.00502 kcal/mol
same,excess molar enthalpy,"298.15 K, x1 = 0.2507",0.244 ± 0.00526 kcal/mol
same,excess molar enthalpy,"298.15 K, x1 = 0.3003",0.251 ± 0.00526 kcal/mol
same,excess molar enthalpy,"298.15 K, x1 = 0.35",0.254 ± 0.0055 kcal/mol
same,excess molar enthalpy,"298.15 K, x1 = 0.4018",0.249 ± 0.00526 kcal/mol
same,excess molar enthalpy,"298.15 K, x1 = 0.4516",0.242 ± 0.00526 kcal/mol
same,excess molar enthalpy,"298.15 K, x1 = 0.5016",0.229 ± 0.00502 kcal/mol
same,excess molar enthalpy,"298.15 K, x1 = 0.5517",0.214 ± 0.00454 kcal/mol
same,excess molar enthalpy,"298.15 K, x1 = 0.6018",0.195 ± 0.0043 kcal/mol
same,excess molar enthalpy,"298.15 K, x1 = 0.65",0.174 ± 0.00382 kcal/mol
same,excess molar enthalpy,"298.15 K, x1 = 0.7003",0.151 ± 0.00335 kcal/mol
same,excess molar enthalpy,"298.15 K, x1 = 0.7507",0.126 ± 0.00263 kcal/mol
same,excess molar enthalpy,"298.15 K, x1 = 0.8012",0.0992 ± 0.00217 kcal/mol
same,excess molar enthalpy,"298.15 K, x1 = 0.8497",0.0747 ± 0.00165 kcal/mol
same,excess molar enthalpy,"298.15 K, x1 = 0.9004",0.0485 ± 0.0011 kcal/mol
same,excess molar enthalpy,"298.15 K, x1 = 0.9491",0.0243 ± 0.000598 kcal/mol
same,excess molar enthalpy,"298.15 K, x1 = 1",0 ± 0.000239 kcal/mol
same,excess molar enthalpy,"313.15 K, x1 = 0.0511",0.143 ± 0.00311 kcal/mol
same,excess molar enthalpy,"313.15 K, x1 = 0.1004",0.211 ± 0.00454 kcal/mol
same,excess molar enthalpy,"313.15 K, x1 = 0.1498",0.252 ± 0.0055 kcal/mol
same,excess molar enthalpy,"313.15 K, x1 = 0.2013",0.279 ± 0.00598 kcal/mol
same,excess molar enthalpy,"313.15 K, x1 = 0.2508",0.294 ± 0.00621 kcal/mol
same,excess molar enthalpy,"313.15 K, x1 = 0.3003",0.299 ± 0.00645 kcal/mol
same,excess molar enthalpy,"313.15 K, x1 = 0.35",0.299 ± 0.00645 kcal/mol
same,excess molar enthalpy,"313.15 K, x1 = 0.3999",0.3 ± 0.00645 kcal/mol
same,excess molar enthalpy,"313.15 K, x1 = 0.4518",0.287 ± 0.00621 kcal/mol
same,excess molar enthalpy,"313.15 K, x1 = 0.5016",0.277 ± 0.00598 kcal/mol
same,excess molar enthalpy,"313.15 K, x1 = 0.5517",0.26 ± 0.0055 kcal/mol
same,excess molar enthalpy,"313.15 K, x1 = 0.6019",0.24 ± 0.00502 kcal/mol
same,excess molar enthalpy,"313.15 K, x1 = 0.6501",0.216 ± 0.00454 kcal/mol
same,excess molar enthalpy,"313.15 K, x1 = 0.7004",0.19 ± 0.00406 kcal/mol
same,excess molar enthalpy,"313.15 K, x1 = 0.7508",0.159 ± 0.00335 kcal/mol
same,excess molar enthalpy,"313.15 K, x1 = 0.8013",0.129 ± 0.00287 kcal/mol
same,excess molar enthalpy,"313.15 K, x1 = 0.8498",0.0978 ± 0.00215 kcal/mol
same,excess molar enthalpy,"313.15 K, x1 = 0.9005",0.0638 ± 0.00143 kcal/mol
same,excess molar enthalpy,"313.15 K, x1 = 0.9492",0.0315 ± 0.000765 kcal/mol
same,excess molar enthalpy,"313.15 K, x1 = 1",0 ± 0.000239 kcal/mol
CCCCCO [pentan-1-ol] + C1CCCCC1,excess molar enthalpy,"298.15 K, x1 = 0.05",0.0797 ± 0.00177 kcal/mol
same,excess molar enthalpy,"298.15 K, x1 = 0.1001",0.105 ± 0.00229 kcal/mol
same,excess molar enthalpy,"298.15 K, x1 = 0.1501",0.124 ± 0.00263 kcal/mol
same,excess molar enthalpy,"298.15 K, x1 = 0.2022",0.139 ± 0.00311 kcal/mol
same,excess molar enthalpy,"298.15 K, x1 = 0.2522",0.149 ± 0.00311 kcal/mol
same,excess molar enthalpy,"298.15 K, x1 = 0.3022",0.155 ± 0.00335 kcal/mol
same,excess molar enthalpy,"298.15 K, x1 = 0.3523",0.158 ± 0.00335 kcal/mol
same,excess molar enthalpy,"298.15 K, x1 = 0.4023",0.157 ± 0.00335 kcal/mol
same,excess molar enthalpy,"298.15 K, x1 = 0.4523",0.153 ± 0.00335 kcal/mol
same,excess molar enthalpy,"298.15 K, x1 = 0.5022",0.146 ± 0.00311 kcal/mol
same,excess molar enthalpy,"298.15 K, x1 = 0.5522",0.137 ± 0.00287 kcal/mol
same,excess molar enthalpy,"298.15 K, x1 = 0.6022",0.126 ± 0.00263 kcal/mol
same,excess molar enthalpy,"298.15 K, x1 = 0.6522",0.113 ± 0.00239 kcal/mol
same,excess molar enthalpy,"298.15 K, x1 = 0.7022",0.0982 ± 0.00215 kcal/mol
same,excess molar enthalpy,"298.15 K, x1 = 0.7522",0.083 ± 0.00182 kcal/mol
same,excess molar enthalpy,"298.15 K, x1 = 0.8021",0.065 ± 0.00143 kcal/mol
same,excess molar enthalpy,"298.15 K, x1 = 0.8501",0.0493 ± 0.00112 kcal/mol
same,excess molar enthalpy,"298.15 K, x1 = 0.9",0.033 ± 0.000765 kcal/mol
same,excess molar enthalpy,"298.15 K, x1 = 0.95",0.0162 ± 0.00043 kcal/mol
same,excess molar enthalpy,"298.15 K, x1 = 1",0 ± 0.000239 kcal/mol
same,excess molar enthalpy,"313.15 K, x1 = 0.05",0.107 ± 0.00237 kcal/mol
same,excess molar enthalpy,"313.15 K, x1 = 0.1",0.139 ± 0.00311 kcal/mol
same,excess molar enthalpy,"313.15 K, x1 = 0.1501",0.161 ± 0.00359 kcal/mol
same,excess molar enthalpy,"313.15 K, x1 = 0.2021",0.177 ± 0.00382 kcal/mol
same,excess molar enthalpy,"313.15 K, x1 = 0.2522",0.188 ± 0.00406 kcal/mol
same,excess molar enthalpy,"313.15 K, x1 = 0.3022",0.193 ± 0.00406 kcal/mol
same,excess molar enthalpy,"313.15 K, x1 = 0.3521",0.196 ± 0.0043 kcal/mol
same,excess molar enthalpy,"313.15 K, x1 = 0.4022",0.194 ± 0.00406 kcal/mol
same,excess molar enthalpy,"313.15 K, x1 = 0.4522",0.187 ± 0.00406 kcal/mol
same,excess molar enthalpy,"313.15 K, x1 = 0.5022",0.178 ± 0.00382 kcal/mol
same,excess molar enthalpy,"313.15 K, x1 = 0.5522",0.17 ± 0.00359 kcal/mol
same,excess molar enthalpy,"313.15 K, x1 = 0.6022",0.152 ± 0.00335 kcal/mol
same,excess molar enthalpy,"313.15 K, x1 = 0.6519",0.139 ± 0.00311 kcal/mol
same,excess molar enthalpy,"313.15 K, x1 = 0.7019",0.118 ± 0.00263 kcal/mol
same,excess molar enthalpy,"313.15 K, x1 = 0.7521",0.0985 ± 0.00215 kcal/mol
same,excess molar enthalpy,"313.15 K, x1 = 0.8021",0.0799 ± 0.00177 kcal/mol
same,excess molar enthalpy,"313.15 K, x1 = 0.8501",0.0598 ± 0.00134 kcal/mol
same,excess molar enthalpy,"313.15 K, x1 = 0.9",0.0381 ± 0.000884 kcal/mol
same,excess molar enthalpy,"313.15 K, x1 = 0.95",0.0191 ± 0.000502 kcal/mol
same,excess molar enthalpy,"313.15 K, x1 = 1",0 ± 0.000239 kcal/mol
Cc1ccccc1 [toluene] + CCCCCO,excess molar enthalpy,"298.15 K, x2 = 0",0 ± 0.000239 kcal/mol
same,excess molar enthalpy,"313.15 K, x2 = 0",0 ± 0.000239 kcal/mol
